Experiments:
Type in all cases: cell-based
Coniophora puteana = assay: radial mycelial growth on fungicide amended agar; conditions: estimated from graph of % activity (radial mycelial growth relative to agar without fungicide) against concentration
Method: Stem cultures of Coniophora puteana were produced by propagating the fungus on a growth medium comprising yeast extract (10 g), glycerol (20 ml), magnesium sulphate (0.5 g), sodium nitrate (6.0 g), potassium chloride (0.5 g), potassium dihydrogen orthophosphate (1.5 g), agar (20 g) in distilled water (980 ml).
Fungicides were added at levels of 5000, 100, 10, 1, 0.1 and 0.01 mg fungicide/litre of growth medium (described above) to give […] different growth medium compositions for each fungicide. Mycelial plugs were taken from the stem cultures and transferred upside down onto petri dishes containing the fungicide amended agar.
The radial mycelial growth of the fungus was measured individually on all test petri dishes. The results are expressed as % activity relative to the radial growth on agar without fungicide.
For each fungicide, a graph was drawn of percentage activity against concentration of fungicide in the growth medium. From this graph, the concentrations of fungicide required to achieve 80% activity was estimated. These figures are given in the results table.

[1] = test system: Alternaria tenuissima (DSM 63360); assay: Example 3 liquid culture assay on 24 well plates, solo and 2-way mixtures
Description: (§1) Alternaria tenuissima (DSM 63360), Penicillium chrysogenum (DSM 895), Stachybotrys chartarum (DSM2144), Aspergillus niger (DSM 63263), Aspergillus versicolor (DSM 1943) and Aureobasidium pullulans (ATCC 15233) were separately cultivated on PDA media to […] sporulation. Spore suspensions were produced for each fungi. Spore concentrations of approx. 100.000 spores/ml were used.
(§2) Test method used: liquid culture assay on 24 well plates.
(§3) For solo (i.e. single) ai testing the formulated fungicide (100 ul) was filled into the 24 well plates and 100 ul distilled water was added. Afterwards 800 ul of 0.3% AE media was added to the plate. The spore suspension of the specific fungi was added to this media in advance containing approx. 100,000 spores/ml. The 24 well plates were sealed and incubated at 24° C.
(§4) Dependent on the growth properties of each organisms, the evaluation was done after 3 to 6 days, when the surface of the check well was covered with mycelium. The evaluation was performed by assessing the growth of the fungi related to the check growth. The results are expressed as % activity relative to the check (values of 0-100% growth). Afterwards the results were converted in % O growth inhibition.
(§5) For synergism testing of the 2-way mixtures 100 ul of each fungicide were filled into 24 well plates and 800 ul of 0.3% AE media containing the spore suspension was added. Different ratios of the 2 fungicide rates were tested at the same time.
(§6) For the mixtures of different fungicides the synergism was calculated based on the Colby equation, which is described below: […]
(§7) The fungicidal action to be expected, We, for a given combination of two fungicides can be calculated as follows (see COLBY, S. R. “Calculating synergistic and antagonistic response of herbicide combinations”. Weeds 15, pages 20-22; 1967): We=X+[Y×(100−X)/100] wherein: • X=% activity in the case of treatment with the compound of formula I at rate x, in comparison with untreated control (=0%). • Y=% activity in the case of treatment with a compound of formula II at rate y, in comparison with untreated control. • We=expected activity (% activity in comparison with untreated control) after treatment with the compound of formula I and a compound of formula II at a rate of x+y kg of active ingredient.
(§8) If the activity actually observed is greater than the expected value We (factor observed activity/expected activity >1.2), there is a synergistic effect.

[2] = test system: Aspergillus niger (DSM 63263); assay: as above; conditions: test 006-2005; rate (AZO) 0.05 mg ai/l
Description: as §1, §2, §3, §4, §5, §6, §7, §8

[3] = test system: Aspergillus versicolor (DSM 1943); assay: as above; conditions: test 006-2005
Description: as §1, §2, §3, §4, §5, §6, §7, §8

[4] = test system: Aureobasidium pullulans (ATCC 15233); assay: as above
Description: as §1, §2, §3, §4, §5, §6, §7, §8

[5] = test system: Penicillium chrysogenum (DSM 895); assay: as above; conditions: test 006-2005
Description: as §1, §2, §3, §4, §5, §6, §7, §8

[6] = test system: Stachybotrys chartarum (DSM2144); assay: as above; conditions: test 006-2005; rate (AZO) 0.8 mg ai/l
Description: as §1, §2, §3, §4, §5, §6, §7, §8

[7] = test system: Aspergillus versicolor (DSM 1943); assay: Example 4 liquid culture assay on 24 and 48 well plates, 3 way mixtures; conditions: test 006-2005, A. versicolor
Description: as §1, with “For test 006-2005: Alternaria” for “Alternaria”, “Cladosporium cladosporoides (DSM62121),” for “Stachybotrys chartarum (DSM2144),”, “fungus.” for “fungi.”, “100,000” for “100.000”
Test method used: liquid culture assay on 24 and 48 well plates respectively.
For testing of the 3 way mixtures each of the formulated fungicide (100 ul) was filled into the 24 and 48 well plates respectively. Afterwards 700 ul of 0.3% AE media was added to the plate. The spore suspension of the specific fungi was added to this media in advance containing approx. 100,000 spores/ml. For testing the solo compounds the equivalent of distilled water was added instead of the formulated fungicide volume of the mixing partners. The plates were then sealed and incubated at 24° C.
as §4, with “%” for “% O”
For the mixtures of different fungicides the synergism was calculated based on the Colby equation, which is described above.

[8] = test 006-2005, rate (AZO) 0.05 mg ai/l
[9] = test 006-2005, rate (AZO) 0.2 mg ai/l
[10] = test 006-2005, rate (AZO) 0.8 mg ai/l

## CO/C=C(/C(=O)OC)c1ccccc1Oc1cc(Oc2ccccc2C#N)ncn1 [Azoxystrobin]
Coniophora puteana
  Concentration required for 80% Activity: 0.38 mg/L
[1]; [8]
  inh % (AZO alone): 10%
[1]; [9]
  inh % (AZO alone): 10%
[1]; [10]
  inh % (AZO alone): 10%
[1]; test 006-2005, rate (AZO) 100 mg ai/l
  inh % (AZO alone): 30%
[1]; test 015-2005, rate (AZO) 0.4 mg ai/l
  inh % (AZO alone): 10%
[1]; test 015-2005, rate (AZO) 0.8 mg ai/l
  inh % (AZO alone): 10%
[1]; test 015-2005, rate (AZO) 1.6 mg ai/l
  inh % (AZO alone): 10%
[1]; test 015-2005, rate (AZO) 3.1 mg ai/l
  inh % (AZO alone): 10%
[1]; test 015-2005, rate (AZO) 6.25 mg ai/l
  inh % (AZO alone): 10%
[2]
  inh % (AZO alone): 10%
[3]; rate (AZO) 0.8 mg ai/l
  inh % (AZO alone): 30%
[3]; rate (AZO) 1.6 mg ai/l
  inh % (AZO alone): 30%
[4]; [8]
  inh % (AZO alone): 0%
[4]; [9]
  inh % (AZO alone): 10%
[4]; [10]
  inh % (AZO alone): 10%
[4]; test 006-2005, rate (AZO) 1.6 mg ai/l
  inh % (AZO alone): 10%
[4]; test 006-2005, rate (AZO) 3.12 mg ai/l
  inh % (AZO alone): 10%
[4]; test 006-2005, rate (AZO) 12.5 mg ai/l
  inh % (AZO alone): 10%
[4]; test 015-2005, rate (AZO) 12.5 mg ai/l
  inh % (AZO alone): 0%
[4]; test 015-2005, rate (AZO) 25 mg ai/l
  inh % (AZO alone): 0%
[4]; test 015-2005, rate (AZO) 50 mg ai/l
  inh % (AZO alone): 0%
[4]; test 015-2005, rate (AZO) 100 mg ai/l
  inh % (AZO alone): 0%
[5]; rate (AZO) 0.05 mg ai/l
  inh % (AZO alone): 10%
[5]; rate (AZO) 0.2 mg ai/l
  inh % (AZO alone): 0%
[5]; rate (AZO) 0.8 mg ai/l
  inh % (AZO alone): 10%
[5]; rate (AZO) 1.6 mg ai/l
  inh % (AZO alone): 10%
[5]; rate (AZO) 3.12 mg ai/l
  inh % (AZO alone): 10%
[5]; rate (AZO) 12.5 mg ai/l
  inh % (AZO alone): 10%
[5]; rate (AZO) 50 mg ai/l
  inh % (AZO alone): 10%
[5]; rate (AZO) 100 mg ai/l
  inh % (AZO alone): 10%
[6]
  inh % (AZO alone): 10%
[7]; AZO 0.05 mg ai/l
  inh % (AZO alone): 10%
[7]; AZO 0.2 mg ai/l
  inh % (AZO alone): 30%
[7]; AZO 0.8 mg ai/l
  inh % (AZO alone): 30%
[7]; AZO 1.6 mg ai/l
  inh % (AZO alone): 30%
[7]; AZO 3.12 mg ai/l
  inh % (AZO alone): 30%
[7]; AZO 12.5 mg ai/l
  inh % (AZO alone): 30%
[7]; AZO 50 mg ai/l
  inh % (AZO alone): 30%
[7]; AZO 100 mg ai/l
  inh % (AZO alone): 30%

Reference: patent publication US8138196B2, “Antifungal wallboards and building materials and methods for the production thereof” (Syngenta Crop Protection, Inc., priority 2005, dated 2012)
